Measured values published in US20260272895A1, “METHODS AND KITS FOR DELIVERY OF COMPOUNDS INTO CELLS” (Yale University, priority 2023, published 2026).

Tests used:
brain cell types = assay: In vivo two-photon imaging of mouse cortex after topical cortical administration of fluorophores; settings: for Target: cell type taking up the compound in vivo (Table 1); for cellular labeling in cortex: topical cortical administration, 50 μM, wild type mice; for in vivo endothelial labeling/uptake: two-photon images of mouse cortex, route and concentration not stated
Procedure: Briefly, animals are anaesthetized via intraperitoneal injections of ketamine/xylazine or via inhaled isoflurane. A region of the skull (3×3 mm) is gently removed with a high-speed drill and the underlying dura is removed. A small glass coverslip is placed over the skull to allow long term optical access for in vivo imaging. Labeling with fluorescent dyes is performed either via intravenous injections or topically application to the cortical surface for 20 min prior to glass cover placement. After recovery, in vivo images are acquired using a two-photon microscope (Bruker Technologies) equipped with a multimodal (fixed wavelength 1040 nm and tunable wavelength) InSight X3 two-photon laser (Spectra Physics) and 20× water immersion objective (Zeiss 1.0N.A.). The two-photon laser is appropriately tuned to excite particular fluorescent dyes and proteins as needed. In selected cases, following in vivo imaging, mice will be sacrificed and perfused for follow up immunohistochemistry and high-resolution confocal imaging (Leica SP8) to further confirm colocalization of dyes and cells expressing particular transporters.
One-month-old wild-type mice were anesthetized using a ketamine/xylazine solution at doses of 100 mg/kg and 10 mg/kg, respectively. The fur around the skull area was shaved, and buprenex (0.1 mg per kg) and carprofen (5 mg per kg) were administered subcutaneously. Mice were kept on a heating pad at 37° C., and anesthesia was periodically monitored. The skin was treated with povidone-iodine solution, followed by cleaning with ethanol, and eye ointment was applied. A small skin section was excised to expose the skull. Thinning of the skull was performed in a circular area, followed by delicately lifting of the remaining skull without harm to the underlying brain. Within the circular region, the dura was gently removed using fine forceps, and a 4 mm cover glass was softly pressed onto the brain surface and affixed to the skull. Fluorescent dyes were applied either through intravenous injections or topically to the cortical surface for 20 minutes before placing the glass cover. A customized head bar was attached either by adhesive (for acute imaging) or permanently implanted (using dental cement, for chronic imaging) onto the skull. Mice were imaged under a two-photon microscope (Prairie Technologies) with a mode-locked MaiTai tunable laser (Spectra Physics). Imaging was performed with a 20× water immersion objective (Zeiss, 1.0NA). Images were captured at depths up to 300 μm from the pial surface using excitation wavelengths ranging from 750 to 950 nm as previously described. Mice undergoing chronic imaging received a recovery period on a heating pad post-surgery, and buprenex (0.1 mg per kg) and carprofen (5 mg per kg) were administered for 3 days.
Batches of 10 compounds were applied through the craniotomy to the cortical surface before placing a cover glass window. No additional washings were performed, and the cover glass was placed, allowing up to 3 hours of imaging of the cortical surface with a two-photon microscope. Following imaging, the data were analyzed to identify potential patterns of cell-specific labeling. […] Positive batches underwent three additional rounds of imaging, with each batch being sequentially split, until a single compound displaying cell-type-specific labeling was identified. As these compounds were not initially purified, the labeling may have resulted from fluorescent byproducts of synthesis. Consequently, large-scale synthesis, purification and characterization (FIGS. 29A-29D) of the identified compounds were conducted. The purified compounds were subsequently retested using in vivo imaging to confirm cell type specificity.
It was reasoned that the best strategy to identify fluorophores with specific affinity to certain cell types and transport mechanisms would be by direct screening in the intact in vivo brain microenvironment. […]

NIH3T3 cells = assay: Assessment of pharmacological effects in vitro in NIH3T3 cells (tubulin staining, multinucleated cells); format: cell-based
Source text: Confocal microscopy of the different treatment groups allowed us to visualize Hoechst dye-labeled nuclei to quantify the proportion of cells with multinucleated phenotype which is known to occur with Colchicine treatments.

Row | SMILES | Target (brain cell types) | also measured
1 | Cc1ccc2c(-c3ccc(S(=O)(=O)O)cc3S(=O)(=O)[O-])c3ccc(Br)cc3[o+]c2c1 [Compound 29] | Endothelial | 
2 | CCN(CC)c1ccc2c(-c3ccc(S(=O)(=O)O)cc3S(=O)(=O)[O-])c3ccc(N(CC)CC)cc3[o+]c2c1 [Compound 46, 2-(3,6-bis(diethylamino)xanthylium-9-yl)-5-sulfobenzenesulfonate] | Endothelial | 
3 | CN(Cc1cnc2nc(NS(=O)(=O)c3ccc(C4=c5cc6c7c(c5Oc5cc(Br)ccc54)CCC[N+]=7CCC6)c(S(=O)(=O)[O-])c3)nc(N)c2n1)c1ccc(C(=O)N[C@@H](CCC(=O)O)C(=O)O)cc1 [52a/52b] |  | endothelial cell labeling/uptake after topical application to the brain (brain cell types; topical cortical application): very strong
4 | CN(C)c1ccc2c(-c3ccc(S(=O)(=O)O)cc3S(=O)(=O)[O-])c3ccc(N(C)C)cc3[o+]c2c1 [Compound 43, 2-(3,6-bis(dimethylamino)xanthylium-9-yl)-5-sulfobenzenesulfonate] | Endothelial | cellular labeling in cortex (brain cell types): robust endothelial specific uptake
5 | CCN(CC)c1ccc2c(-c3ccc(S(=O)(=O)NCCOCCOCCOCCOCCOCCOCCOCCOCCOCCOCCOCCOCCOCCOCCOCCOCCOCCOCCOCCOCCOCCOCCOCCOCCOCCOCCOCCOCCOCCOCCOCCOCCOCCOCCOCCOCCOCCOCCOCCOCCOCCOCCOCCOCCOC)cc3S(=O)(=O)[O-])c3ccc(N(CC)CC)cc3[o+]c2c1 [Compound 57] |  | in vivo endothelial labeling/uptake (brain cell types): highly specific in vivo endothelial labeling
6 | O=S(=O)([O-])c1cc(S(=O)(=O)O)ccc1C1=c2cc3c4c(c2Oc2cc(Cl)c(F)cc21)CCC[N+]=4CCC3 [Compound 11, 2-(12-chloro-11-fluoro-1,2,3,5,6,7-hexahydrochromeno[2,3-f]pyrido[3,2,1-ij]quinolin-4-ium-9-yl)-5-sulfobenzenesulfonate] | Endothelial | 
7 | CCN(CC)c1ccc2c(-c3ccc(S(=O)(=O)O)cc3S(=O)(=O)[O-])c3cc(Br)ccc3[o+]c2c1 [Compound 39, 2-(2-bromo-6-(diethylamino)xanthylium-9-yl)-5-sulfobenzenesulfonate] | Endothelial | 
8 | CN(C)c1ccc2c(-c3ccc(S(=O)(=O)Cl)cc3S(=O)(=O)[O-])c3ccc(N(C)C)cc3[o+]c2c1 [Compound 54, 2-(3,6-bis(dimethylamino)xanthylium-9-yl)-5-(chlorosulfonyl)benzenesulfonate] |  | cellular labeling in cortex (brain cell types): robust endothelial specific uptake
9 | O=S(=O)([O-])c1cc(S(=O)(=O)O)ccc1C1=c2cc3c4c(c2Oc2cc5ccc(Br)cc5cc21)CCC[N+]=4CCC3 [Compound 44, 2-(12-bromo-1,2,3,5,6,7-hexahydrobenzo[6,7]chromeno[2,3-f]pyrido[3,2,1-ij]quinolin-4-ium-9-yl)-5-sulfobenzenesulfonate] | Endothelial | 
10 | CC(=O)N(O)CCCCCNC(=O)CCC(=O)N(O)CCCCCNC(=O)CCC(=O)N(O)CCCCCNS(=O)(=O)c1ccc(-c2c3ccc(N(C)C)cc3[o+]c3cc(N(C)C)ccc23)c(S(=O)(=O)[O-])c1 [Compound 49, 2-(3,6-bis(dimethylamino)xanthylium-9-yl)-5-(N-(3,14,25-trihydroxy-2,10,13,21,24-pentaoxo-3,9,14,20,25-pentaazatriacontan-30-yl)sulfamoyl)benzenesulfonate] |  | in vivo endothelial labeling/uptake (brain cell types): robust endothelial cell body uptake
11 | O=S(=O)([O-])c1cc(S(=O)(=O)O)ccc1-c1c2ccc(B(O)O)cc2[o+]c2c3c4c(cc12)CCCN4CCC3 [Compound 41, 2-(12-borono-2,3,6,7-tetrahydro-1H,5H-chromeno[2,3-f]pyrido[3,2,1-ij]quinolin-14-ium-9-yl)-5-sulfobenzenesulfonate] | Endothelial | 
12 | O=S(=O)([O-])c1cc(S(=O)(=O)O)ccc1C1=c2cc3c4c(c2Oc2cc(F)c(F)cc21)CCC[N+]=4CCC3 [Compound 8, 2-(11,12-difluoro-1,2,3,5,6,7-hexahydrochromeno[2,3-f]pyrido[3,2,1-ij]quinolin-4-ium-9-yl)-5-sulfobenzenesulfonate] | Endothelial | 
13 | O=S(=O)([O-])c1cc(S(=O)(=O)O)ccc1C1=c2cc3c4c(c2Oc2cc(Cl)ccc21)CCC[N+]=4CCC3 [Compound 3, 2-(12-chloro-1,2,3,5,6,7-hexahydrochromeno[2,3-f]pyrido[3,2,1-ij]quinolin-4-ium-9-yl)-5-sulfobenzenesulfonate] | Endothelial | 
14 | O=C(O)CCc1ccc2c(c1)Oc1c3c4c(cc1=C2c1ccc(S(=O)(=O)O)cc1S(=O)(=O)[O-])CCC[N+]=4CCC3 [Compound 37, 2-(12-(2-carboxyethyl)-1,2,3,5,6,7-hexahydrochromeno[2,3-f]pyrido[3,2,1-ij]quinolin-4-ium-9-yl)-5-sulfobenzenesulfonate] | Astrocyte | 
15 | O=S(=O)([O-])c1cc(S(=O)(=O)O)ccc1C1=c2cc3c4c(c2Oc2cc(I)c(Cl)cc21)CCC[N+]=4CCC3 [Compound 16, 2-(11-chloro-12-iodo-1,2,3,5,6,7-hexahydrochromeno[2,3-f]pyrido[3,2,1-ij]quinolin-4-ium-9-yl)-5-sulfobenzenesulfonate] | Endothelial | 
16 | O=S(=O)([O-])c1cc(S(=O)(=O)O)ccc1C1=c2cc3c4c(c2Oc2cc(Cl)c(Br)cc21)CCC[N+]=4CCC3 [Compound 13, 2-(11-bromo-12-chloro-1,2,3,5,6,7-hexahydrochromeno[2,3-f]pyrido[3,2,1-ij]quinolin-4-ium-9-yl)-5-sulfobenzenesulfonate] | Endothelial | 
17 | O=S(=O)([O-])c1cc(S(=O)(=O)O)ccc1-c1c2ccc(Br)cc2[o+]c2cc(N3CCOCC3)ccc12 [Compound 30, 2-(3-bromo-6-morpholinoxanthylium-9-yl)-5-sulfobenzenesulfonate] | Endothelial | 
18 | COc1cc2c(c(OC)c1OC)-c1ccc(OC)c(=O)cc1[C@@H](NC(C)=O)CC2 [Colchicine] |  | alpha tubulin staining (NIH3T3 cells; 30 μM, NIH3T3 cells (FIG. 11A)): equal disruption of the tubulin structure; alpha tubulin staining (NIH3T3 cells; 100 μM, NIH3T3 cells (FIG. 11B)): equal disruption of the tubulin structure; phalloidin staining (NIH3T3 cells; 100 μM, NIH3T3 cells (FIG. 11D)): disruption of the tubulin structure; phalloidin staining (NIH3T3 cells; NIH3T3 cells (FIG. 11C), concentration not given): equal disruption of the tubulin structure; cell morphology / multinucleated cells (NIH3T3 cells; NIH3T3 cells (FIG. 17A)): changes in cell morphology and presence of multinucleated cells; pattern of α-tubulin immunofluorescence (NIH3T3 cells; NIH3T3 cells, 12 hours, varying concentrations (FIG. 17A)): diffuse labeling pattern
19 | CN(C)c1ccc2c(c1)Oc1c3c4c(cc1=C2c1ccc(S(=O)(=O)O)cc1S(=O)(=O)[O-])CCC[N+]=4CCC3 [Compound 36, 2-(12-(dimethylamino)-1,2,3,5,6,7-hexahydrochromeno[2,3-f]pyrido[3,2,1-ij]quinolin-4-ium-9-yl)-5-sulfobenzenesulfonate] | Astrocyte | 
20 | Cc1ccc2c(-c3ccc(S(=O)(=O)O)cc3S(=O)(=O)[O-])c3cc4c5c(c3[o+]c2c1)CCCN5CCC4 [Compound 40, 2-(12-methyl-2,3,6,7-tetrahydro-1H,5H-chromeno[2,3-f]pyrido[3,2,1-ij]quinolin-14-ium-9-yl)-5-sulfobenzenesulfonate] | Endothelial | 
21 | O=S(=O)([O-])c1cc(S(=O)(=O)O)ccc1C1=c2cc3c4c(c2Oc2c(Br)cccc21)CCC[N+]=4CCC3 [Compound 5, 2-(13-bromo-1,2,3,5,6,7-hexahydrochromeno[2,3-f]pyrido[3,2,1-ij]quinolin-4-ium-9-yl)-5-sulfobenzenesulfonate] | Endothelial | 
22 | O=S(=O)([O-])c1cc(S(=O)(=O)O)ccc1C1=c2cc3c4c(c2Oc2c1ccc(F)c2Cl)CCC[N+]=4CCC3 [Compound 22, 2-(13-chloro-12-fluoro-1,2,3,5,6,7-hexahydrochromeno[2,3-f]pyrido[3,2,1-ij]quinolin-4-ium-9-yl)-5-sulfobenzenesulfonate] | Endothelial | 
23 | O=S(=O)([O-])c1cc(S(=O)(=O)O)ccc1C1=c2cc3c4c(c2Oc2cc(F)c(Cl)cc21)CCC[N+]=4CCC3 [Compound 9, 2-(11-chloro-12-fluoro-1,2,3,5,6,7-hexahydrochromeno[2,3-f]pyrido[3,2,1-ij]quinolin-4-ium-9-yl)-5-sulfobenzenesulfonate] | Endothelial | 
